{"source": "PubChem BioAssay AID1259411", "about": "(Chemical Carcinogenesis Research Information System (CCRIS), 2018)", "tested_on": "rodent carcinogenicity bioassays, tumor incidence", "experiment": "CCRIS carcinogenicity studies", "summary_of_the_method": "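Archive of carcinogenicity, mutagenicity, tumor promotion and tumor inhibition results drawn from journals, NCI reports and other sources, expert-reviewed; covers 1985-2011 and is no longer updated.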", "note": "Active and inactive are the calls of the source. The rule behind the calls is not given here."}
{"smiles": "C=CC#N", "values": [{"measurement": "carcinogen call", "setting": "Species: HUMAN, Route: INHALATION, Tumor Site: Type of Lesion: LUNG, COLON", "result": "active; positive"}, {"measurement": "carcinogen call", "setting": "Species: MOUSE, Strain/Sex: B6C3F1/FEMALE, Route: GAVAGE, Dose: 0, 2.5, 10, 20 MG/KG 5D/WK FOR 104-105 WK (STUDY DURATION: 104-105 WK), Dose: 0, 2.5, 10, 20 MG/KG 5D/WK FOR 104-105 WK (STUDY DURATION: 104-105 WK), Tumor Site: Type of Lesion: FORESTOMACH: SQUAMOUS CELL PAPILLOMA, SQUAMOUS CELL CARCINOMA, SQUAMOUS CELL PAPILLOMA OR CARCINOMA, HARDERIAN GLAND: AD", "result": "active; positive"}, {"measurement": "carcinogen call", "setting": "Species: MOUSE, Strain/Sex: B6C3F1/FEMALE, Route: GAVAGE, Dose: 0, 2.5, 10, 20 MG/KG 5D/WK FOR 104-105 WK (STUDY DURATION: 104-105 WK), Dose: 0, 2.5, 10, 20 MG/KG 5D/WK FOR 104-105 WK (STUDY DURATION: 104-105 WK), Tumor Site: Type of Lesion: OVARY: MALIGNANT GRANULOSA CELL TUMOR, LUNG (ALVEOLAR/BRONCHIOLAR): ADENOMA OR CARCINOMA", "result": "equivocal"}, {"measurement": "carcinogen call", "setting": "Species: MOUSE, Strain/Sex: B6C3F1/FEMALE, Route: GAVAGE, Dose: 0, 2.5, 10, 20 MG/KG/D 5 D/WK FOR 105 WK (STUDY DURATION: 105 WK), Dose: 0, 2.5, 10, 20 MG/KG/D 5 D/WK FOR 105 WK (STUDY DURATION: 105 WK), Tumor Site: Type of Lesion: FORESTOMACH: SQUAMOUS CELL PAPILLOMA, SQUAMOUS CELL CARCINOMA, SQUAMOUS CELL PAPILLOMA OR CARCINOMA, EPITHELIAL HYPERPLA", "result": "active; positive"}, {"measurement": "carcinogen call", "setting": "Species: MOUSE, Strain/Sex: B6C3F1/MALE, Route: GAVAGE, Dose: 0, 2.5, 10, 20 MG/KG 5D/WK FOR 104-105 WK (STUDY DURATION: 104-105 WK), Dose: 0, 2.5, 10, 20 MG/KG 5D/WK FOR 104-105 WK (STUDY DURATION: 104-105 WK), Tumor Site: Type of Lesion: FORESTOMACH: SQUAMOUS CELL PAPILLOMA, SQUAMOUS CELL CARCINOMA, SQUAMOUS CELL PAPILLOMA OR CARCINOMA, HARDERIAN GLAND: AD", "result": "active; positive"}, {"measurement": "carcinogen call", "setting": "Species: MOUSE, Strain/Sex: B6C3F1/MALE, Route: GAVAGE, Dose: 0, 2.5, 10, 20 MG/KG/D 5 D/WK FOR 105 WK (STUDY DURATION: 105 WK), Dose: 0, 2.5, 10, 20 MG/KG/D 5 D/WK FOR 105 WK (STUDY DURATION: 105 WK), Tumor Site: Type of Lesion: FORESTOMACH: SQUAMOUS CELL PAPILLOMA, SQUAMOUS CELL CARCINOMA, SQUAMOUS CELL PAPILLOMA OR CARCINOMA, EPITHELIAL HYPERPLA", "result": "active; positive"}, {"measurement": "carcinogen call", "setting": "Species: RAT, Route: INHALATION, Tumor Site: Type of Lesion: MAMMARY GLAND, NERVOUS SYSTEM (CENTRAL), EAR (ZYMBAL GLAND), Tumor Site: Type of Lesion: MAMMARY GLAND, NERVOUS SYSTEM (CENTRAL), EAR (ZYMBAL GLAND)", "result": "active; positive"}, {"measurement": "carcinogen call", "setting": "Species: RAT, Route: ORAL, Tumor Site: Type of Lesion: FORESTOMACH, STOMACH, NERVOUS SYSTEM (CENTRAL), EAR (ZYMBAL GLAND), Tumor Site: Type of Lesion: FORESTOMACH, STOMACH, NERVOUS SYSTEM (CENTRAL), EAR (ZYMBAL GLAND)", "result": "active; positive"}, {"measurement": "carcinogen call", "setting": "Species: RAT, Strain/Sex: F344/FEMALE, Route: ORAL, Dose: 0, 1, 3, 10, 30, 100 PPM IN DRINKING WATER FOR LIFETIME (STUDY DURATION: 26 MO), Dose: 0, 1, 3, 10, 30, 100 PPM IN DRINKING WATER FOR LIFETIME (STUDY DURATION: 26 MO), Tumor Site: Type of Lesion: BRAIN: ASTROCYTOMA, ZYMBAL'S GLAND: SQUAMOUS CELL PAPILLOMA, ADENOMA/CARCINOMA, MAMMARY GLAND: FIBROADENOMA, FORESTOMAC, Tumor Site: Type of Lesion: BRAIN: ASTROCYTOMA, ZYMBAL'S GLAND: SQUAMOUS CELL PAPILLOMA, ADENOMA/CARCINOMA, MAMMARY GLAND: FIBROADENOMA, FORESTOMAC", "result": "active; positive"}, {"measurement": "carcinogen call", "setting": "Species: RAT, Strain/Sex: F344/MALE, Route: ORAL, Dose: 0, 1, 3, 10, 30, 100 PPM IN DRINKING WATER FOR LIFETIME (STUDY DURATION: 26 MO), Dose: 0, 1, 3, 10, 30, 100 PPM IN DRINKING WATER FOR LIFETIME (STUDY DURATION: 26 MO), Tumor Site: Type of Lesion: BRAIN: ASTROCYTOMA, SPINAL CORD: ASTROCYTOMA, ZYMBAL'S GLAND: SQUAMOUS CELL PAPILLOMA, ADENOMA/CARCINOMA, FORESTOMACH: S, Tumor Site: Type of Lesion: BRAIN: ASTROCYTOMA, SPINAL CORD: ASTROCYTOMA, ZYMBAL'S GLAND: SQUAMOUS CELL PAPILLOMA, ADENOMA/CARCINOMA, FORESTOMACH: S", "result": "active; positive"}, {"measurement": "carcinogen call", "setting": "Species: RAT, Strain/Sex: SPRAGUE-DAWLEY/FEMALE, Route: GAVAGE, Dose: 0, 0.1, 10 MG/KG/D 7D/WK FOR 20 MO (STUDY DURATION: 20 MO), Dose: 0, 0.1, 10 MG/KG/D 7D/WK FOR 20 MO (STUDY DURATION: 20 MO), Tumor Site: Type of Lesion: BRAIN: ASTROCYTOMA, ZYMBAL'S GLAND/EAR CANAL: CARCINOMA, FORESTOMACH: SQUAMOUS CELL PAPILLOMA/PAPILLOMA, SQUAMOUS CELL C, Tumor Site: Type of Lesion: BRAIN: ASTROCYTOMA, ZYMBAL'S GLAND/EAR CANAL: CARCINOMA, FORESTOMACH: SQUAMOUS CELL PAPILLOMA/PAPILLOMA, SQUAMOUS CELL C", "result": "active; positive"}, {"measurement": "carcinogen call", "setting": "Species: RAT, Strain/Sex: SPRAGUE-DAWLEY/FEMALE, Route: GAVAGE, Dose: 0, 5 MG/KG BW IN OLIVE OIL 3/WK FOR 52 WK (STUDY DURATION: LIFETIME), Tumor Site: Type of Lesion: [BRAIN WAS ONLY SITE EVALUATED]", "result": "inactive; negative"}]}
